“And” between values parts separate entries of the source, which are not always exact repeats. Equal entries are not always repeated. Where two headings read alike, the source gives them in different places.
Columns and labels:
[1] = system: Salmonella typhimurium ATCC 14028; experiment: Effect on viability of Salmonella in suspension (Tables D-1 to D-3); type: cell-based; conditions: for bacterial viability: Table D-1
Experimental: EC50 values for four of the compounds were calculated from the bactericidal activity of the compounds as a function of molar concentration by a nonlinear regression algorithm.
In addition to the quaternary ammonium compounds, the antimicrobial activities of chelating agents Na2 -EDTA and EGTA were investigated. Na2 -EDTA was purchased from the Sigma Chemical Company (St. Louis, Mo.). Na2 -EDTA was dissolved in 0.04 M PPB prior to the assay and further dilutions were made in the same buffer.
EGTA was purchased from the Aldrich Chemical Company (Milwaukee, Wis.). EGTA was dissolved in 0.04 M PPB according to the procedure described by Harafuji and Ogawa (J. Biochem. 87:1305-1312 (1980)). After heating EGTA for 15 minutes at 80° C., the pH was adjusted to 7.0 by addition of NaOH. EGTA was filter-sterilized using a 0.2 μm Acro disc filter (Gelman Sciences; Ann Arbor, Mich.) prior to the assay. Further dilutions were made in sterile PPB.

[2] = system: Salmonella typhimurium on chicken skin; experiment: Effect of surfactants on Salmonella attached to chicken skin, drumsticks (Tables F1-F4); conditions: 25° C.
Experimental: The following experiments utilizing chicken legs were conducted to determine the killing potential of a variety of surfactants against Salmonella on the skin and free in solutions. To this end, chicken legs obtained from the Department of Agriculture at the University of Arkansas, Fayetteville, were incubated for thirty minutes at room temperature with a 1:5000 dilution of Salmonella typhimurium. The chicken legs were removed five at a time and then rinsed twice in tap water to remove the unattached and excess Salmonella. The rinse water was sampled, diluted, and then plated onto XLD pour plates. […] The chicken legs were then removed and rinsed twice in tap water to remove the released Salmonella and excess chemicals. Rinses were then sampled, diluted, and then plated onto XLD pour plates.
The chicken legs were then individually washed with 100 ml sterile double distilled water, and then shaken fifty times. Samples of the wash H2 O were diluted and plated onto XLD pour plates. The chicken legs were further swabbed after the washing step above. The swabs were then plated onto the XLD plates. A set of wash samples were enriched with TT Broth Base Hajna and then plated onto XLD plates.
All of the samples were plated in 1 ml aliquots onto XLD pour plates. A positive control sample incubated in sterile double distilled water at 4° C. was run for each of the aforementioned conditions. Treatments occurred at both 4° C. and 25° C. The data is reported as the mean number of CFU/ml. The ratio in the table represents the number of chicken legs out of a sample of ten chicken legs producing the notated number of colonies, as indicated by the +, ++, +++, or ++++.

[3] = system: Salmonella typhimurium ATCC 14028; experiment: Minimum growth inhibitory concentration, macrodilution; type: cell-based; conditions: Mueler Hinton broth, macrodilution (NCCLS)
Experimental: Minimum growth inhibitory concentrations (MICs) of quaternary ammonium compounds and Na2 -EDTA for Salmonella were determined using Mueler Hinton broth (BBL Microbiology system, Cockeysville, Md.) and by the macrodilution method established by the National Committee for Clinical Laboratory Standards (NCCLS). Escherichia coli ATCC 25922 and Staphylococcus aureus ATCC 29213 were included in each assay as reference strains.

[4] = system: Salmonella typhimurium ATCC 14028 attached to human buccal epithelial cells; type: cell-based; conditions: Table A-1
Experimental: Studies were conducted on the attachment of Salmonella typhimurium to human buccal epithelial cells using the modified procedure of Boussard et al., International J. Pharmaceutics 53: 253-256 (1989). In this study, the activities of cationic and anionic surfactant compounds as well as certain chelating agents were compared on the detachment of S. typhimurium from epithelial cells.
To this end, bacteria were grown on nutrient agar for 16 hours at 37° C. The cells were suspended in 0.008 M phosphate buffered saline (PBS) at pH 7.2 and washed two times at 4500 rpm for 10 minutes. The last suspension was diluted in PBS to obtain a cell concentration of 0.5 to 1×10^9 cells/ml. Human epithelial cells were obtained by swabbing the buccal surface of a healthy, nonsmoking donor. […] The number of living cells was estimated and the suspension diluted to 0.5 to 1×10^5 cells/ml.
Next, the suspension of the human buccal cells was mixed with an equal volume of the bacterial suspension (3.0 ml), or PBS (0.8 ml). Contact was allowed for 1.5 hours at 35° C. under agitation. The mixtures were then centrifuged for 10 minutes at 4500 rpm. Each suspension, 1.0 ml, was transferred into Eppendorf vials and washed with PBS at 1500 rpm for 10 minutes. After the washing, the cells were treated with 1.0 ml PBS or 1.0 ml of the test chemical solution. Treatment was performed by suspending and vortexing on a low speed for 30 seconds followed by centrifugation at 1500 rpm for 10 minutes.
After the treatment, the cells were washed once with PBS and then 20 μl of erythrosin B was added to each vial. The suspension was centrifuged at 1500 rpm for 10 minutes, and the cells were washed twice under the same conditions. The final pellet was suspended in 300 μl of PBS. This suspension was spread out onto microscope slides and dried overnight at room temperature. After counter staining with methylene blue, the slides were microscopically examined under oil immersion.

[5] = system: Salmonella typhimurium ATCC 14028 attached to human buccal epithelial cells; experiment: microbe, parasite or virus in culture; type: cell-based; conditions: for adherence, mean value of attached bacteria: Table A-3
Experimental: Additional studies on the detachment of Salmonella typhimurium from human buccal epithelial cells were conducted.
S. typhimurium ATCC 14028 was grown in nutrient broth (BBL Microbiology system, Cockeysville, Md.) for 16 hours at 37° C. The cells were centrifuged and washed twice with 0.008 M phosphate buffered saline (PBS, at pH 7.2) at 4500 rpm for 10 minutes. The last suspension was diluted in PBS to obtain a cell concentration 0.5 to 1×10^9 cells/ml using spectrophotometric measurement. Human epithelial cells were obtained by swabbing the buccal surface of a healthy, nonsmoking donor. […] The number of living cells was estimated and the suspension was diluted to 0.5 to 1×10^5 cells/ml.
The suspension of the human buccal cells was mixed with an equal volume of the bacterial suspension (3.0 ml), or PBS (0.8 ml) in 10 ml Erlenmeyer flasks. Contact was allowed for 1.5 hours at 35° C. under agitation. After incubation, 1.0 ml of each suspension was transferred into an Eppendorff vial, centrifuged at 3000 rpm for 10 minutes, and washed with PBS. The cells were treated with 1.0 ml PBS or 1.0 ml of the test chemical solution. Treatment was performed by suspending, gently vortexing, and centrifuging at 1500 rpm for 10 minutes. After the treatment, the cells were washed and placed on microscopic slides for examination.
EC50 represents the inverse measurement of the potency of a compound. EC50 values were determined by a nonlinear regression of the detachment effect versus the cationic surfactant concentration data from Table A-3.

CCCCCCCCCCCC[N+](C)(C)C.[Br-] [DTMAB, dodecyltrimethylammonium bromide]
bacterial viability ([1]; 10 ug/ml): 1.44 ± 0.07 × 10^9 CFU/ml | bacterial viability ([1]; 100 ug/ml): 1.3 ± 0.03 × 10^9 CFU/ml | bacterial viability ([1]; 200 ug/ml): 8.75 ± 1.28 × 10^8 CFU/ml | bacterial viability ([1]; 350 ug/ml): 800 ± 1300 CFU/ml | bacterial viability ([1]; 1000 ug/ml): 100 ± 100 CFU/ml | EC50 ([1]; Salmonella enterica, read-out: EC50 (±SD), effect on viability in suspension): 730 ± 64 µM | Enrichment, chicken legs out of ten ([2]; 0.1%): 8/10 | Rinse H2O ([2]; 0.1%): + (1-10) | Surfactant Solution ([2]; 0.1%): 0 CFU/ml | Swabs, chicken legs producing the notated number of colonies ([2]; 0.1%): 6/10 | Swabs, colonies ([2]; 0.1%): + (1-10) | Wash H2O, chicken legs producing the notated number of colonies ([2]; 0.1%): 10/10 | Wash H2O, colonies ([2]; 0.1%): ++ (11-100) | Enrichment, chicken legs out of ten ([2]; 1.0%): 0/10 | Rinse H2O ([2]; 1.0%): 0 CFU/ml | Surfactant Solution ([2]; 1.0%): 0 CFU/ml | Swabs, chicken legs producing the notated number of colonies ([2]; 1.0%): 0/10 | Wash H2O, colonies ([2]; 1.0%): 0 CFU/ml | Enrichment, chicken legs out of ten ([2]; .01%): 10/10 | Rinse H2O ([2]; .01%): + (1-10) | Surfactant Solution ([2]; .01%): + (1-10) | Swabs, chicken legs producing the notated number of colonies ([2]; .01%): 10/10 | Swabs, colonies ([2]; .01%): + (1-10) | Wash H2O, chicken legs producing the notated number of colonies ([2]; .01%): 10/10 | Wash H2O, colonies ([2]; .01%): ++ (11-100) | MIC [3]: 150 µg/mL | MIC ([3]; Salmonella enterica): 156 µg/mL | adherence, mean value of attached bacteria ([4]; 10 ug/ml): 76 ± 43 | adherence, mean value of attached bacteria ([4]; 25 ug/ml): 41 ± 19 | adherence, mean value of attached bacteria ([4]; 75 ug/ml): 30 ± 18 | adherence, mean value of attached bacteria ([4]; 100 ug/ml): 23 ± 18 | adherence, mean value of attached bacteria ([5]; 50 ug/ml): 113 ± 85 | adherence, mean value of attached bacteria ([5]; 75 ug/ml): 102 ± 59 | adherence, mean value of attached bacteria ([5]; 100 ug/ml): 92 ± 58 and 74 ± 56 | adherence, mean value of attached bacteria ([5]; 150 ug/ml): 80 ± 59 | adherence, mean value of attached bacteria ([5]; 200 ug/ml): 60 ± 43 | adherence, mean value of attached bacteria ([5]; 250 ug/ml): 63 ± 35 | adherence, mean value of attached bacteria ([5]; 300 ug/ml): 54 ± 35 | adherence, mean value of attached bacteria ([5]; 325 ug/ml): 68 ± 39 | EC50 ([5]; Salmonella enterica, Epithelial cell, read-out: EC50 (±SD), detachment): 868 ± 112 µM
